This data set deals with CCRIS mutagenicity, Ames/micronucleus/aberration tests. The data set can be described thus: CCRIS mutagenicity studies.
[1] abbreviates: Test System: AMES SALMONELLA TYPHIMURIUM, Strain/Indicator: TA98, Metabolic Activation: NONE, Method: STANDARD PLATE.
Where [2] appears, read: Test System: AMES SALMONELLA TYPHIMURIUM, Strain/Indicator: TA100, Metabolic Activation: NONE, Method: STANDARD PLATE.
Setting [3] is: Test System: AMES SALMONELLA TYPHIMURIUM, Strain/Indicator: TA100, Metabolic Activation: RAT, LIVER, S-9, Method: STANDARD PLATE.
Where [4] appears, read: Test System: AMES SALMONELLA TYPHIMURIUM, Strain/Indicator: TA1537, Metabolic Activation: NONE, Method: STANDARD PLATE.

Calls of active or inactive are those of the source. No rule for the calls is given here.

Take `O=[N+]([O-])c1cc([N+](=O)[O-])c2ccc3cccc4ccc1c2c43`: the mutagenic call is, setting by setting: (End Point: IN VITRO CHROMOSOMAL ABERRATIONS, Test System: CHINESE HAMSTER LUNG (CHL) CELLS, Metabolic Activation: NONE) “active; positive”; (End Point: IN VITRO CHROMOSOMAL ABERRATIONS, Test System: CHINESE HAMSTER LUNG (CHL) CELLS, Metabolic Activation: RAT, LIVER, S-9, KC-400) “active; positive”; (Test System: AMES SALMONELLA TYPHIMURIUM, Strain/Indicator: TA98 (1,8-DNP6), Metabolic Activation: NONE, Method: STANDARD PLATE) “active; positive”; (Test System: AMES SALMONELLA TYPHIMURIUM, Strain/Indicator: TA98 (NR), Metabolic Activation: NONE, Method: STANDARD PLATE) “active; positive”; (Test System: AMES SALMONELLA TYPHIMURIUM, Strain/Indicator: TA98, Metabolic Activation: NONE, Method: PREINCUBATION) “active; positive”; under setting [1], “active; positive”. The mutagenic call by setting is: (Test System: AMES SALMONELLA TYPHIMURIUM, Strain/Indicator: TA98, Metabolic Activation: RAT, LIVER, S-9, PCB (10%), Method: PREINCUBATION) “inactive; negative”; under setting [2], “active; positive”; (Test System: AMES SALMONELLA TYPHIMURIUM, Strain/Indicator: TA100, Metabolic Activation: RAT, LIVER, CYTOSOL, AROCLOR 1254, Method: STANDARD PLATE) “active; positive”; (Test System: AMES SALMONELLA TYPHIMURIUM, Strain/Indicator: TA100, Metabolic Activation: RAT, LIVER, CYTOSOL, Method: STANDARD PLATE) “active; positive”; (Test System: AMES SALMONELLA TYPHIMURIUM, Strain/Indicator: TA100, Metabolic Activation: RAT, LIVER, MICROSOMES, AROCLOR 1254, Method: STANDARD PLATE) “active; positive”; (Test System: AMES SALMONELLA TYPHIMURIUM, Strain/Indicator: TA100, Metabolic Activation: RAT, LIVER, MICROSOMES, Method: STANDARD PLATE) “active; positive”. The mutagenic call reads like this: (Test System: AMES SALMONELLA TYPHIMURIUM, Strain/Indicator: TA100, Metabolic Activation: RAT, LIVER, S-9, AROCLOR 1254, Method: STANDARD PLATE) “inactive; negative”; under setting [3], “active; positive”; (Test System: AMES SALMONELLA TYPHIMURIUM, Strain/Indicator: TA7001, Metabolic Activation: NONE, Method: PREINCUBATION) “active; positive”; (Test System: AMES SALMONELLA TYPHIMURIUM, Strain/Indicator: TA7002, Metabolic Activation: NONE, Method: PREINCUBATION) “active; positive”; (Test System: AMES SALMONELLA TYPHIMURIUM, Strain/Indicator: TA7003, Metabolic Activation: NONE, Method: PREINCUBATION) “active; positive”; (Test System: AMES SALMONELLA TYPHIMURIUM, Strain/Indicator: TA7004, Metabolic Activation: NONE, Method: PREINCUBATION) “active; positive”. For the same compound, the mutagenic call by setting is: (Test System: AMES SALMONELLA TYPHIMURIUM, Strain/Indicator: TA7005, Metabolic Activation: NONE, Method: PREINCUBATION) “active; positive”; (Test System: AMES SALMONELLA TYPHIMURIUM, Strain/Indicator: TA7006, Metabolic Activation: NONE, Method: PREINCUBATION) “active; positive”; (Test System: UDS HUMAN HEPATOMA CELLS, Strain/Indicator: HEPG2/THY INCORP, Metabolic Activation: NONE) “inactive; negative”.
In the case of `CCn1c(N)nc2c3cccnc3cc(C)c21`, the mutagenic call (Test System: AMES SALMONELLA TYPHIMURIUM, Strain/Indicator: TA98, Metabolic Activation: RAT, LIVER, S-9, AROCLOR 1254, Method: PREINCUBATION) was “active; positive”.
Consider `CS(=O)CC[C@H](N)C(=O)O.Cc1ccc(NCC(=O)N(CC(=O)O)CC(=O)O)c(C)c1.[H+].[H+].[Pt]`, for which the mutagenic call (Test System: MOUSE LYMPHOMA, Strain/Indicator: L5178Y(LY-R) (HGPRT)/6-THIOGUANINE, Metabolic Activation: NONE) is “active; positive”.
In the case of `c1ccc2c(c1)cc1c3c2ccc2cccc(c23)C2OC12` (stereo not drawn), the mutagenic call runs as follows: (Test System: AMES SALMONELLA TYPHIMURIUM, Strain/Indicator: TA98, Metabolic Activation: NONE, Method: HOST-MEDIATED) “inactive; negative”; under setting [1], “active; positive”; (Test System: AMES SALMONELLA TYPHIMURIUM, Strain/Indicator: TA98, Metabolic Activation: RAT, LIVER, S-9, KC500 OR PHENOBARBITAL, Method: LIQUID SUSPENSION) “active; positive”; (Test System: AMES SALMONELLA TYPHIMURIUM, Strain/Indicator: TA100, Metabolic Activation: MICROSOMAL EPOXIDE HYDROLASE, Method: PREINCUBATION) “active; positive”; (Test System: AMES SALMONELLA TYPHIMURIUM, Strain/Indicator: TA100, Metabolic Activation: NONE, Method: HOST-MEDIATED) “inactive; negative”; (Test System: AMES SALMONELLA TYPHIMURIUM, Strain/Indicator: TA100, Metabolic Activation: NONE, Method: PREINCUBATION) “active; positive”. For the same compound, the mutagenic call was “active; positive” under setting [2]; “active; positive” (Test System: AMES SALMONELLA TYPHIMURIUM, Strain/Indicator: TA100, Metabolic Activation: RAT, LIVER, S-9, KC500 OR PHENOBARBITAL, Method: LIQUID SUSPENSION); “active; positive” under setting [4]; “inactive; negative” (Test System: AMES SALMONELLA TYPHIMURIUM, Strain/Indicator: TA1538, Metabolic Activation: NONE, Method: HOST-MEDIATED); “active; positive” (Test System: AMES SALMONELLA TYPHIMURIUM, Strain/Indicator: TA1538, Metabolic Activation: NONE, Method: STANDARD PLATE); “active; positive” (Test System: CHINESE HAMSTER V-79, Strain/Indicator: V-79/6-THIOGUANINE, Metabolic Activation: NONE, Method: REPLATING). Further, the mutagenic call is, setting by setting: (Test System: CHINESE HAMSTER V-79, Strain/Indicator: V-79/6-THIOGUANINE, Metabolic Activation: NONE, Method: STANDARD PLATE) “active; positive”; (Test System: CHINESE HAMSTER V-79, Strain/Indicator: V-79/8-AZAGUANINE, Metabolic Activation: NONE, Method: STANDARD PLATE) “active; positive”; (Test System: CHINESE HAMSTER V-79, Strain/Indicator: V-79/OUABAIN, Metabolic Activation: NONE, Method: STANDARD PLATE) “active; positive”; (Test System: E. COLI, Strain/Indicator: WP2UVRA, Metabolic Activation: NONE, Method: STANDARD PLATE) “active; positive”; (Test System: UDS HUMAN CELLS, Strain/Indicator: THY INCORP (NON-S-PHASE), Metabolic Activation: NONE, Method: LIQUID SCINTILLATION COUNTING) “active; positive”.
Regarding `Cc1ccc(S(=O)(=O)OC(C)C)cc1`, the mutagenic call is “active; positive” (End Point: IN VITRO MICRONUCLEUS, Test System: MOUSE LYMPHOMA L5178Y CELLS, Metabolic Activation: NONE); “active; positive” (End Point: IN VITRO MICRONUCLEUS, Test System: MOUSE LYMPHOMA L5178Y CELLS, Metabolic Activation: RAT, LIVER, S-9); “active; positive (p<0.05)” (End Point: In vitro micronucleus, Test System: Chinese Hamster Ovary (CHO-WBL) cells, Metabolic Activation: None); “active; positive” under setting [2]; “active; positive” under setting [3].
In the case of `CCCCCCCC(=O)Nc1snc2ccccc12`, the mutagenic call runs as follows: under setting [2], “inactive; negative”; (Test System: AMES SALMONELLA TYPHIMURIUM, Strain/Indicator: TA100, Metabolic Activation: S-9, Method: STANDARD PLATE) “inactive; negative”; under setting [4], “inactive; negative”; (Test System: AMES SALMONELLA TYPHIMURIUM, Strain/Indicator: TA1537, Metabolic Activation: S-9, Method: STANDARD PLATE) “inactive; negative”.
Turning to `NC(=O)c1cccnc1`, the mutagenic call is, setting by setting: (Test System: AMES SALMONELLA TYPHIMURIUM, Strain/Indicator: TA97A, Metabolic Activation: NONE, Method: PREINCUBATION) “inactive; negative”; (Test System: AMES SALMONELLA TYPHIMURIUM, Strain/Indicator: TA97A, Metabolic Activation: RAT, LIVER, S-9, AROCLOR 1254, Method: PREINCUBATION) “inactive; negative”; (Test System: AMES SALMONELLA TYPHIMURIUM, Strain/Indicator: TA102, Metabolic Activation: NONE, Method: PREINCUBATION) “inactive; negative”; (Test System: AMES SALMONELLA TYPHIMURIUM, Strain/Indicator: TA102, Metabolic Activation: RAT, LIVER, S-9, AROCLOR 1254, Method: PREINCUBATION) “inactive; negative”.

The values are drawn from PubChem BioAssay AID1259407 (Chemical Carcinogenesis Research Information System (CCRIS), 2018).
